Laboratory results: PubChem BioAssay AID2060906 (Molecular Pharmacology Branch, DTP, NCI, 2025)
pIC50: −log10 of the molar value.

Test system: 485176-168-R4-J1-PDC complex spheroid growth
Experiment: Anticancer human tumor 485176-168-R4-J1-PDC patient-derived pancreatic adenocarcinoma cell line growth inhibition [RAS]
Details: for pIC50: curve of first compound; for viability, T/C: stronger effect = lower value
Method in brief: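 Multi-cell-type spheroids: tumor cells plus HUVEC endothelial cells and mesenchymal stem cells. RAS-pathway inhibitors were combined with targeted agents, each dosed in half-log steps down from clinical Cmax, or from 10 microM when Cmax was unknown.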
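Further: spheroids exposed to compounds for seven days before readout.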
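Wherever viability, T/C is given: luminescence viability expressed relative to DMSO vehicle wells set as 100%.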

Cc1nc(N2CCC3(CC2)COC(C)C3N)c(CO)nc1Sc1ccnc(N)c1Cl (configuration not stated) + CCn1c(-c2cc(N3CCN(C)CC3)cnc2C(C)OC)c2c3cc(ccc31)-c1csc(n1)CC(NC(=O)C1CC1C)C(=O)N1CCCC(N1)C(=O)OCC(C)(C)C2
pIC50 (second compound 0.000949 µM): < 5.00 | pIC50 (second compound 0.003 µM): < 5.00 | pIC50 (second compound 0.00949 µM): < 5.00 | pIC50 (second compound 0.03 µM): < 5.00 | pIC50 (second compound 0.0949 µM): < 5.00 | pIC50 (second compound 0.3 µM): < 5.00 | viability, T/C (second compound 0.000949 µM, first compound 0.0316 µM): 90.6% | viability, T/C (second compound 0.000949 µM, first compound 0.1 µM): 83.5% | viability, T/C (second compound 0.000949 µM, first compound 0.316 µM): 84.1% | viability, T/C (second compound 0.000949 µM, first compound 1 µM): 72.8% | viability, T/C (second compound 0.000949 µM, first compound 3.16 µM): 77.5% | viability, T/C (second compound 0.000949 µM, first compound 10 µM): 75.7% | viability, T/C (second compound 0.003 µM, first compound 0.0316 µM): 82.7% | viability, T/C (second compound 0.003 µM, first compound 0.1 µM): 68.7% | viability, T/C (second compound 0.003 µM, first compound 0.316 µM): 87.8% | viability, T/C (second compound 0.003 µM, first compound 1 µM): 83.6% | viability, T/C (second compound 0.003 µM, first compound 3.16 µM): 83.8% | viability, T/C (second compound 0.003 µM, first compound 10 µM): 82.8% | viability, T/C (second compound 0.00949 µM, first compound 0.0316 µM): 94.3% | viability, T/C (second compound 0.00949 µM, first compound 0.1 µM): 80.1% | viability, T/C (second compound 0.00949 µM, first compound 0.316 µM): 80.4% | viability, T/C (second compound 0.00949 µM, first compound 1 µM): 78.5% | viability, T/C (second compound 0.00949 µM, first compound 3.16 µM): 77.2% | viability, T/C (second compound 0.00949 µM, first compound 10 µM): 68% | viability, T/C (second compound 0.03 µM, first compound 0.0316 µM): 77.1% | viability, T/C (second compound 0.03 µM, first compound 0.1 µM): 74.6% | viability, T/C (second compound 0.03 µM, first compound 0.316 µM): 94.7% | viability, T/C (second compound 0.03 µM, first compound 1 µM): 82.5% | viability, T/C (second compound 0.03 µM, first compound 3.16 µM): 90% | viability, T/C (second compound 0.03 µM, first compound 10 µM): 63.4% | viability, T/C (second compound 0.0949 µM, first compound 0.0316 µM): 85.2% | viability, T/C (second compound 0.0949 µM, first compound 0.1 µM): 93.2% | viability, T/C (second compound 0.0949 µM, first compound 0.316 µM): 59.9% | viability, T/C (second compound 0.0949 µM, first compound 1 µM): 75% | viability, T/C (second compound 0.0949 µM, first compound 3.16 µM): 80.7% | viability, T/C (second compound 0.0949 µM, first compound 10 µM): 70.4% | viability, T/C (second compound 0.3 µM, first compound 0.0316 µM): 78.8% | viability, T/C (second compound 0.3 µM, first compound 0.1 µM): 72.9% | viability, T/C (second compound 0.3 µM, first compound 0.316 µM): 63.2% | viability, T/C (second compound 0.3 µM, first compound 1 µM): 56.9% | viability, T/C (second compound 0.3 µM, first compound 3.16 µM): 76.5% | viability, T/C (second compound 0.3 µM, first compound 10 µM): 65.3%
